This note sets out measurements from patent publication US20080081825A1, “Nitrogen-Containing Heterocyclic Compounds and Medicinal Use Thereof” (priority 2004, published 2008).

Assay [1] deals with recombinant human p38α MAP kinase (Homo sapiens, UniProt Q16539). Put plainly: Study on p38α MAP kinase inhibitory activity (ATF-2 phosphorylation, Alpha Screen). Type of assay: biochemical. To be noted: ATF2 substrate, ATP 90 μmol/L. On the procedure: Using activation transcription factor-2 (hereinafter abbreviated as ATF-2) which is a substrate for p38α MAP kinase, the inhibitory action of the compounds of the present invention was investigated on the phosphorylation by a recombinant human p38α MAP kinase.
A kinase buffer (25 mM Tris-HCl (pH 7.5), 5 mM […], 2 mM dithiothreitol, 0.1 mM Na3VO4, 10 mM MgCl2) containing a recombinant human p38α MAP kinase was added to a 384-well plate (5 μL) (6.25 ng protein/well) for fluorescence measurement. After addition of a kinase buffer (5 μL) containing the compound of the present invention, the resulting mixture was incubated at room temperature for 20 minutes. A substrate mixture (5 μL) of biotinylated ATF2 of 5 μg/mL (Upstate Biotechnology #14-432), adenosine triphosphate (90 μmol/L) (Sigma #FL-AAS) and anti-phosphorylated ATF2 antibody (20-fold dilution) (Cell Signaling Technology #9221L) prepared separately was added thereto, and enzyme reaction was carried out at 30° C. for 30 minutes. After the reaction, Hepes buffer (5 μL) containing 0.25% BSA and 100 mM EDTA was added to stop the enzyme reaction. The amount of a complex of the phosphorylated ATF2 and anti-phosphorylated ATF2 antibody produced by the reaction was measured using an Alpha Screenm Rabbit Detection kit (Packard #6760607).
The p38α MAP kinase inhibitory activity, which is the effect of the compound of the present invention, was calculated as an inhibition rate (%) according to the following equation:
(§1) Inhibition rate (%)={(AC−AX)/(AC−AB)}×100
Inhibition rate of compounds with each concentration was calculated, and a value indicating 50% inhibition (IC50) was determined from the inhibition curve.

The subject of assay [2] is TNF-α production induced by lipopolysaccharide (LPS). In words: Rat cytokine-production model (LPS-induced TNF-α in plasma). Type of assay: in vivo. The following applies: dose of 3 mg/kg orally, LPS 10 μg/kg intravenously after 2 hours, plasma 90 minutes after LPS. Here is the method:
The in vivo effect of the compound of the present invention was studied on TNF-α production induced by lipopolysaccharide (LPS) in rats.
A vehicle containing the compound of the present invention was orally administered to male Lew […] (Charles River Japan, Inc.), and after 2 hours, lipopolysaccharide (LPS, 055:B5, Difco) was intravenously administered at the dose of 10 μg/kg (5 animals/group). Only a vehicle was orally administered to a control group (5 animals). Ninety minutes after the LPS treatment, heparinized blood collection was performed via the abdominal cava vein under anesthesia with ether, and blood plasma was obtained by centrifugation (12,000 rpm, 3 minutes, 4° C.). The obtained blood plasma sample was stored at −80° C. until it was used. TNF-α in the blood plasma was measured using an ELISA kit from Genzyme/Techne (#10516).
The inhibitory activity of the compound of the present invention against TNF-α production was calculated as an inhibition rate (%) according to the following equation:
Inhibition rate (%)={(AC−AX)/A^C}×100

Assay [3] deals with TNF-α production, THP-1 human monocyte cell line. In words: Inhibitory activity against TNF-α production using human cell lines (LPS-stimulated THP-1). Type of assay: cell-based. To be noted: 1.5 h, THP-1 cells, LPS stimulation, 90 minutes. On the procedure: Using THP-1 which is a human monocyte cell line, the inhibitory effect of the compound of the present invention against TNF-α production stimulated by lipopolysaccharide (LPS) was studied.
Each 50 μL of lipopolysaccharide (LPS; Difco #3120-25-0) prepared to a concentration of 40 ng/mL using RPMI-1640 medium containing 10% fetal calf serum (hereinafter abbreviated to RPMI-1640) and RPMI-1640 containing the compound of the present invention was added to a 96-well plate for cell culture. One hundred μL of the cell suspension of THP-1 (Dainippon Pharmaceutical Co., Ltd, #06-202) prepared to a cell density of 2×10^6 cells/mL using RPMI-1640 was added and cultured for 90 minutes at 37° C. in an incubator (5% CO2, 95% air). After completion of the reaction, the culture medium supernatant was recovered and the amount of produced TNF-α was measured using an ELISA kit (Invitrogen, #850090192).
The inhibitory activity against TNF-α production, which is the effect of the compound of the present invention, was calculated as an inhibition rate (%) by the following equation:
as §1
AX is a measured value with LPS induction in the presence of a test compound. Inhibition rate of compounds with each concentration was calculated, and a value indicating 50% inhibition (IC50) was determined from the inhibition curve.

Chain of recombinant human p38α MAP kinase (Q16539 whole entry): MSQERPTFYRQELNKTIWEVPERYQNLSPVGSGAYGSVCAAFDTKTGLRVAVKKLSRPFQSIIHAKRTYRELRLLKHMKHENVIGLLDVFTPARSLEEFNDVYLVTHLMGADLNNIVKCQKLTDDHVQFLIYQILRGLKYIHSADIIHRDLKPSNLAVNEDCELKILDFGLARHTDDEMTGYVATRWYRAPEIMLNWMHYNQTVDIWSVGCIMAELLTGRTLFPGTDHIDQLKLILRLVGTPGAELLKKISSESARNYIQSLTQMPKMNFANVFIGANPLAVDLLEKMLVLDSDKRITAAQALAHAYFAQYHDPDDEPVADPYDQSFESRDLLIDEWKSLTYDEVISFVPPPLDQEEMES

The IC50 is the concentration needed to halve the response being measured. With `O=c1ccc(C(=NO)c2ccc(F)cc2F)cn1-c1c(Cl)cccc1Cl` [Example 7, 1-(2,6-dichlorophenyl)-5-[(2,4-difluorophenyl)(hydroxyimino)methyl]pyridin-2(1H)-one], in assay [1], the IC50 came out at 4.9 nM.
On to `Cc1cc(F)cc(C)c1-n1cc(/C(=N/OC2CCN(C)CC2)c2ccc(F)cc2F)ccc1=O` [Example 48, 5-((Z)-(2,4-difluorophenyl) {[(1-methyl-4-piperidinyl)oxy]iimino}methyl)-1-(4-fluoro-2,6-dimethylphenyl)-2(1H)-pyridinone], for which, in assay [2], the “inhibition against in vivo TNF-α production induced by LPS stimulation” value was determined as 72%. The IC50 was found to be 34 nM in assay [1] and 2.4 nM in assay [3].
`Cc1cc(C)c(-n2cc(C(=NOC3CCN(C)CC3)c3ccc(F)cc3F)ccc2=O)c(C)c1` [Example 52(9), 5-((2,4-difluorophenyl){[(1-methyl-4-piperidinyl)oxy]imino}methyl)-1-mesityl-2(1H)-pyridinone]: the “inhibition against in vivo TNF-α production induced by LPS stimulation” value in assay [2] is on record as 72%. The IC50 in assay [1] was determined as 20.5 nM; in assay [3], 7.1 nM.
